From paper PMC11143312, “Antioxidant, anti-amylase, anti-lipase, and efficiency of Satureja fatty acid on the anti-inflammatory parameters in lipopolysaccharide-stimulated macrophage through Nrf2/NF-kB/NADH oxidase pathway” (Scientific Reports, 2024)
Converted amounts (≈) assume the structure as drawn.

Legend:
[1] = biological target: T1, lipase (EC 3.1.1.3, from Saccharomyces cerevisiae); assay: p-nitrophenyl butyrate hydrolysis, absorbance at […] nm; type: biochemical; conditions: 30 min pre-incubation, 37 °C; substrate pNPB; positive control
T1 construct: gene TGL2; discussion speaks of pancreatic lipase, but the assay used the yeast-labelled enzyme

[2] = system: T1, lipase (EC 3.1.1.3, from Saccharomyces cerevisiae); assay: pNPB hydrolysis at […] nm, Lineweaver-Burk plot; type: biochemical; conditions: no inhibitor; unit printed as µg, not a concentration; pNPB 0.0–10 mg/mL

Row | IC50 [1] [µg/mL] | Km [2] [µg] | Compound
1 | 213 ± 5.0 (≈ 430 µM) |  | CCCCCCCCCCC[C@@H](C[C@@H]1OC(=O)[C@H]1CCCCCC)OC(=O)[C@H](CC(C)C)NC=O [orlistat]
2 |  | 5.08 ± 0.23 | CCCC(=O)Oc1ccc([N+](=O)[O-])cc1 [p-nitrophenyl butyrate]
